Tested on: anti-topiramate antibodies prepared with immunogen (18)
Test: ELISA binding inhibition study (avidity), free topiramate versus coated antigen
Set-up: species or system Rabbit; Abs: unit not given here
Procedure: ELISA plates for use in an ELISA assay are prepared in order to study the polyclonal antibody prepared as described in Example 21. As such, various topiramate antigens (16), (19), and (20) are coated on different ELISA plates before being subjected to the anti-topiramate antibody and competing free topiramate. More particularly, the topiramate antigens are diluted in coating buffer, and then added to the wells of ELISA plate. After the ELISA plate is incubated for 60 min at 37° C., the solvent in the coating buffer is decanted and a blocking buffer is added to the plate. The plate is incubated again for 60 min at 37° C., and the solvent in the blocking buffer is decanted from the plate. The ELISA plate is then stored with the blocking agent in the wells at 2-8° C. for up to 1 week. The avidity of the anti-topiramate antibodies prepared with immunogen (17) for topiramate analogs are determined by a binding inhibition study. As such, samples are prepared in 1 mL of PBS at pH 7.4 with 0.1% BSA. A composition having 30% Bmax titer or 50% Bmax titer is used to divide the obtained titer value into approximately half the titer value. Using 30% Bmax, an antibody titer of 1:10,000 is diluted to 1:5,000 during the sample preparation stage. About 50 μL of topiramate at different concentrations or calibrator values, (0, 2, 4, 8, 16, 32 μg/ml) are then applied to a plate as prepared in accordance with Example 22. About 50 μL of the diluted antibody is dispensed into the plate, and the compositions in the plate are mixed for 1 min on a horizontal plate shaker. The plate is characterized by a first row not containing topiramate or anti-topiramate antibody, wherein the first row is used as a negative control. A second row not containing topiramate is used as the positive control. The plate is incubated for 60 min, and washed three times with 250 μL of PBS at pH 7.4 with 0.05% tween. About 125 μL of a diluted second antibody conjugate such as antigens (16), (19), or (20), in PBS at pH 7.4 is added to each well of the plate. Titer is determined experimentally by the plate being incubated for 60 min at 37° C. and washed 3 times with 250 μL PBS, pH 7.4 with 0.05% tween. Subsequently, about 125 μL of ABTS substrate is added to each well of the plate and incubated for 20 min. The avidity of the anti-topiramate antibodies prepared with immunogen (18) for topiramate analogs is determined by a binding inhibition study performed with an experimental protocol substantially similar as in Example 24.

[1] = Antigen 16, Topiramate 2 μg/ml, Rabbit No. 5490
[2] = Antigen 16, Topiramate 2 μg/ml, Rabbit No. 5495
[3] = Antigen 16, Topiramate 4 μg/ml, Rabbit No. 5490
[4] = Antigen 16, Topiramate 4 μg/ml, Rabbit No. 5495
[5] = Antigen 16, Topiramate 8 μg/ml, Rabbit No. 5490
[6] = Antigen 16, Topiramate 8 μg/ml, Rabbit No. 5495
[7] = Antigen 16, Topiramate 16 μg/ml, Rabbit No. 5490
[8] = Antigen 16, Topiramate 16 μg/ml, Rabbit No. 5495
[9] = Antigen 16, Topiramate 32 μg/ml, Rabbit No. 5490
[10] = Antigen 16, Topiramate 32 μg/ml, Rabbit No. 5495
[11] = Antigen 19, Topiramate 2 μg/ml, Rabbit No. 5490
[12] = Antigen 19, Topiramate 2 μg/ml, Rabbit No. 5495
[13] = Antigen 19, Topiramate 4 μg/ml, Rabbit No. 5490
[14] = Antigen 19, Topiramate 4 μg/ml, Rabbit No. 5495
[15] = Antigen 19, Topiramate 8 μg/ml, Rabbit No. 5490
[16] = Antigen 19, Topiramate 8 μg/ml, Rabbit No. 5495
[17] = Antigen 19, Topiramate 16 μg/ml, Rabbit No. 5490
[18] = Antigen 19, Topiramate 16 μg/ml, Rabbit No. 5495
[19] = Antigen 19, Topiramate 32 μg/ml, Rabbit No. 5490
[20] = Antigen 19, Topiramate 32 μg/ml, Rabbit No. 5495
[21] = Antigen 20, Topiramate 2 μg/ml, Rabbit No. 5490
[22] = Antigen 20, Topiramate 2 μg/ml, Rabbit No. 5495
[23] = Antigen 20, Topiramate 4 μg/ml, Rabbit No. 5490
[24] = Antigen 20, Topiramate 4 μg/ml, Rabbit No. 5495
[25] = Antigen 20, Topiramate 8 μg/ml, Rabbit No. 5490
[26] = Antigen 20, Topiramate 8 μg/ml, Rabbit No. 5495
[27] = Antigen 20, Topiramate 16 μg/ml, Rabbit No. 5490
[28] = Antigen 20, Topiramate 16 μg/ml, Rabbit No. 5495
[29] = Antigen 20, Topiramate 32 μg/ml, Rabbit No. 5490
[30] = Antigen 20, Topiramate 32 μg/ml, Rabbit No. 5495

Abs [1]: 0.25 | B/Bo [1]: 0.35 | Abs [2]: 0.25 | B/Bo [2]: 0.35 | Abs [3]: 0.20 | B/Bo [3]: 0.28 | Abs [4]: 0.28 | B/Bo [4]: 0.39 | Abs [5]: 0.15 | B/Bo [5]: 0.21 | Abs [6]: 0.15 | B/Bo [6]: 0.21 | Abs [7]: 0.12 | B/Bo [7]: 0.17 | Abs [8]: 0.12 | B/Bo [8]: 0.17 | Abs [9]: 0.10 | B/Bo [9]: 0.14 | Abs [10]: 0.10 | B/Bo [10]: 0.14 | Abs [11]: 0.10 | B/Bo [11]: 0.18 | Abs [12]: 0.13 | B/Bo [12]: 0.20 | Abs [13]: 0.06 | B/Bo [13]: 0.10 | Abs [14]: 0.08 | B/Bo [14]: 0.12 | Abs [15]: 0.04 | B/Bo [15]: 0.07 | Abs [16]: 0.05 | B/Bo [16]: 0.08 | Abs [17]: 0.03 | B/Bo [17]: 0.06 | Abs [18]: 0.04 | B/Bo [18]: 0.06 | Abs [19]: 0.02 | B/Bo [19]: 0.04 | Abs [20]: 0.02 | B/Bo [20]: 0.03 | Abs [21]: 0.25 | B/Bo [21]: 0.63 | Abs [22]: 0.18 | B/Bo [22]: 0.53 | Abs [23]: 0.24 | B/Bo [23]: 0.60 | Abs [24]: 0.17 | B/Bo [24]: 0.50 | Abs [25]: 0.22 | B/Bo [25]: 0.55 | Abs [26]: 0.16 | B/Bo [26]: 0.47 | Abs [27]: 0.21 | B/Bo [27]: 0.53 | Abs [28]: 0.14 | B/Bo [28]: 0.41 | Abs [29]: 0.20 | B/Bo [29]: 0.50 | Abs [30]: 0.11 | B/Bo [30]: 0.32
Compound: CC1(C)O[C@@H]2[C@@H](CO[C@@]3(COS(N)(=O)=O)OC(C)(C)O[C@@H]23)O1 [Topiramate, 2,3:4,5-di-O-isopropylidene-beta-D-fructopyranose sulfamate]
